The values below come from US6974804B2, “Esters” (Unilever Home & Personal Care USA, division of Conopco, Inc., priority 2000, dated 2005).

Type in all cases: physicochemical
The nature of series [1]: Gelling of water-immiscible cosmetic liquids in 96 well glass micro-titre plate. More on the design: key: gel; g4: gel after overnight (18 hrs) storage at 4° C.; g22: gel after overnight (18 hrs) storage at 22° C.; sg: soft gel; sg22: soft gel after overnight (18 hrs) storage at 22° C.; solution; *: the test at 4° C. was not carried out. Conditions: for gelling of ISA: 150° C. 2.5 hours, cooled to ambient. A digest of the protocol:
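Esterified cellobiose at about 5% or 10% was mixed with the cosmetic liquid in lidded glass wells and heated at 150 °C for 2.5 h, then cooled to ambient. Gelling was judged by visual inspection and micro-spatula probing after cooling, after 18 h at 18 °C, and after a further 18 h at 4 °C.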

Series [2] is described as follows: DSC of gels: fibre dissolution temperature (FDT) and solubility of structurant. Conditions: for Solubility of structurant at 25° C.: from DSC of gel, relative to benchmark REF 2; for FDT: gel heated at 5 K/min in DSC, peak temperature of the highest peak. Here is the method:
In this Example the Fibre dissolution temperature (FDT) is measured in the DSC process described later herein, by observing when the fibres dissolve whilst the temperature of sample rises. FDT is taken to be the peak temperature of the highest peak.
In REF2 and REF3, the acyl substituents at the other seven cellobiose sites are nonanoyl.
Samples of gel (about 20 mg) were sealed in stainless steel capsules for DSC. An empty stainless steel capsule was used as the physical reference. The samples were subjected to the following temperature programme:
The sample was heated to 100° C. and held at 100° C. for 1 minute, in order to obtain an isotropic solution. The sample was then cooled at 5 K/min to −20° C. The sample was held at −20° C. for 1 minute. The sample is now a gel on the bottom of the sample capsule prepared in a reproducible manner. The gel was then heated at 5 K/min to 100° C. Data was also obtained with empty stainless steel pans as both physical sample and reference. This blank data was later subtracted from the sample data to remove any curvature in the base line.

Series [3] is described as follows: Light transmission at 580 nm (% T). As to conditions: for Clarity % T: 9% REF2 and 1% of the specified ester in 60:40 hydrogenated polydecene:DC245, 580 nm.
The nature of series [4]: Stability testing of gels: crystal growth visible by eye on storage at 37° C. As to conditions: for Observations: 9% of REF1 and 1% of additional structurant. Here is the method:
Gels were made up using 10% structurant in a 60:40 mixture of Hydrogenated Polyisobutene (Panalene L14E):DC245. The gels, in sealed glass bottles, were left to stand for 18 hrs at room temperature, after which they were transferred to an oven thermostatically controlled to 37° C. Samples were checked periodically for signs of crystal growth visible by eye. REF1 is cellobiose octanonanoate.
Gels were made up and tested in accordance with the procedure in Example 6, as such or modified by employing a weight ratio of 9% of REF1 and 1% of an additional structurant as specified in Table 13 below.
The test procedure of Example 9 was repeated, but using ACB structurant REF2 alone as the structurant or to which a CHME structurant was added.

A short description of series [5]: Visual assessment score (clarity of gel in 1 cm cuvette). As to conditions: for Clarity Visual (assessment score): 9% REF2 and 1% of the specified ester in 60:40 hydrogenated polydecene:DC245, scale −12 to 8; for Clarity Visual (appearance): 60:40 hydrogenated polydecene:DC245 gelled with 9% REF2 and 1% of the specified cellobiose ester. A digest of the protocol: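 A gel in a 1 cm cuvette was laid on white paper printed with 21 graded sets of black figures, numbered −12 (largest, thickest) to 8 (smallest, thinnest). The score was the highest-numbered set read clearly through the gel, with higher meaning clearer.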

Where [6] appears, read: 5% cellobiose ester in Finsolv TN.
Where [7] appears, read: 5% cellobiose ester in Fluid AP.
Where [8] appears, read: 5% cellobiose ester in Mineral oil.
Setting [9] is: 5% cellobiose ester in Polydecene.
The mark [10] stands for this setting: 10% cellobiose ester in Finsolv TN.
Where [11] appears, read: 10% cellobiose ester in Fluid AP.
The mark [12] stands for this setting: 10% cellobiose ester in Mineral oil.
[13] abbreviates: 10% cellobiose ester in Polydecene.
Setting [14] is: 10% structurant in 60:40 Panalene L14E:DC245, after 17 days at 37° C.

Consider `CCCCCCCCC(=O)OCC1OC(OC2C(COC(=O)CCCCCCCC)OC(OC(=O)c3ccccc3)C(OC(=O)CCCCCCCC)C2OC(=O)CCCCCCCC)C(OC(=O)CCCCCCCC)C(OC(=O)CCCCCCCC)C1OC(=O)CCCCCCCC` (mixture of isomers) [Ex 1.2], for which the “gelling of DC556” value in series [1] (5% cellobiose ester in DC556) and in series [1] (10% cellobiose ester in DC556) was “gel” throughout. For the same compound, the “gelling of Finsolv TN” value in series [1] (setting [6]) and in series [1] (setting [10]) was “sol” throughout. Also, the “gelling of Fluid AP” value is listed as “sg” in series [1] (setting [7]) and “gel” in series [1] (setting [11]). Moreover, the “gelling of IPM” value in series [1] (5% cellobiose ester in IPM) and in series [1] (10% cellobiose ester in IPM) was “sol” throughout. For the same compound, the “gelling of ISA” value is “sg” in series [1] (5% cellobiose ester in ISA) and “gel” in series [1] (10% cellobiose ester in ISA). The “gelling of Mineral oil” value in series [1] (setting [8]) is listed as “sg”; in series [1] (setting [12]) it was “gel”. The “gelling of Polydecene” value in series [1] (setting [9]) and in series [1] (setting [13]) was “gel” in each case. Besides, the “Solubility of structurant at 25° C.” value in series [2] is “Less soluble. No”. In addition, in series [2], the FDT stood at 67 °C. In addition, in series [3], the “Clarity % T” value was determined as 38%. For the same compound, in series [4] (setting [14]), the Observation result was “No crystals after 17 days”. The “Clarity Visual (assessment score)” value in series [5] is on record as “translucent 4”. Besides, the “Clarity Visual (appearance)” value in series [5] was “transparent/”.

Regarding `CCCCCCCCC(=O)OCC1OC(OC2C(COC(=O)CCCCCCCC)OC(OC(=O)c3ccc4ccccc4c3)C(OC(=O)CCCCCCCC)C2OC(=O)CCCCCCCC)C(OC(=O)CCCCCCCC)C(OC(=O)CCCCCCCC)C1OC(=O)CCCCCCCC` (mixture of isomers) [Ex 1.3], the “gelling of DC556” value in series [1] (5% cellobiose ester in DC556) and in series [1] (10% cellobiose ester in DC556) was “gel” each time. Besides, the “gelling of Finsolv TN” value is recorded as “sol” in series [1] (setting [6]) and “g4” in series [1] (setting [10]). Further, the “gelling of Fluid AP” value in series [1] (setting [7]) and in series [1] (setting [11]) was “gel” in each case. For the same compound, the “gelling of IPM” value in series [1] (5% cellobiose ester in IPM) is “g4”; in series [1] (10% cellobiose ester in IPM), “g22”. Further, the “gelling of ISA” value in series [1] (5% cellobiose ester in ISA) and in series [1] (10% cellobiose ester in ISA) was “gel” throughout. For the same compound, the “gelling of Mineral oil” value in series [1] (setting [8]) and in series [1] (setting [12]) was “g22” each time. The “gelling of Polydecene” value in series [1] (setting [9]) and in series [1] (setting [13]) was “gel” throughout. Further, the “Solubility of structurant at 25° C.” value in series [2] was “Less soluble. No”. This compound had an FDT in series [2] of 63 °C. Further, the “Clarity % T” value in series [3] was found to be 58%. Moreover, the Observations entry in series [4] (after 12 days at 37° C.) is “No crystals after 12 days at 37 °C”. Besides, the Observation result in series [4] (REF2 to which the CHME structurant was added, after 12 days at 37° C.) is “No crystals after 12 days at 37 °C”. For the same compound, the “Clarity Visual (assessment score)” value in series [5] came to 4. For the same compound, the “Clarity Visual (appearance)” value in series [5] is on record as “transparent”.

Turning to `CCCCCCCCC(=O)OCC1OC(OC2C(COC(=O)CCCCCCCC)OC(OC(C)=O)C(OC(=O)CCCCCCCC)C2OC(=O)CCCCCCCC)C(OC(=O)CCCCCCCC)C(OC(=O)CCCCCCCC)C1OC(=O)CCCCCCCC` (mixture of isomers) [Ex 1.7], the “gelling of DC556” value in series [1] (5% cellobiose ester in DC556) and in series [1] (10% cellobiose ester in DC556) was “gel” in each case. Besides, the “gelling of Fluid AP” value in series [1] (setting [7]) and in series [1] (setting [11]) was “gel” in each case. Moreover, the “gelling of ISA” value in series [1] (5% cellobiose ester in ISA) is given as “sg”; in series [1] (10% cellobiose ester in ISA) it was “gel”. For the same compound, the “gelling of Mineral oil” value in series [1] (setting [8]) is recorded as “sg”; in series [1] (setting [12]), “gel”. In addition, the “gelling of Polydecene” value in series [1] (setting [9]) and in series [1] (setting [13]) was “gel” in each case. Also, the “Solubility of structurant at 25° C.” value in series [2] was “Less soluble. No”. In series [2], this compound returned an FDT of 72 °C. Besides, the “Clarity % T” value in series [3] was 52%. Also, the Observations entry in series [4] (after 13 days at 37° C.) is “Slight crystal growth on surface after 13”. In addition, the Observation result in series [4] (setting [14]) is given as “No crystals after 17 days”; in series [4] (REF2 to which the CHME structurant was added, after 13 days at 37° C.) it was “Slight very fine crystal growth after 13”. In series [5], the “Clarity Visual (assessment score)” value is greater than 8. In series [5], the “Clarity Visual (appearance)” value is “transparent”.

For the compound `CCCCCCCCC(=O)OC[C@H]1O[C@@H](O[C@H]2[C@H](OC(=O)CCCCCCCC)[C@@H](OC(=O)CCCCCCCC)C(OC(=O)CCCCCCCC)O[C@@H]2COC(=O)CCCCCCCC)[C@H](OC(=O)CCCCCCCC)[C@@H](OC(=O)CCCCCCCC)[C@@H]1OC(=O)CCCCCCCC` (stereo partly shown) [REF 2, cellobiose octanonanoate], the “Solubility of structurant at 25° C.” value in series [2] is recorded as “Benchmark. Some”. The compound further returned an FDT in series [2] of 47 °C. In addition, in series [3], the “Clarity % T” value is on record as 41%. Moreover, the “% T Ex 1.12” value in series [3] (CHME = Ex 1.12, CHME:REF2 at stated weight ratio, total 10% in 60:40 Silkflo 364NF:DC245) is on record as 41%. For the same compound, the “% T Ex 1.13” value in series [3] (CHME = Ex 1.13, CHME:REF2 at stated weight ratio, total 10% in 60:40 Silkflo 364NF:DC245) is given as 41%. The Observation result in series [4] (10% structurant in 60:40 Panalene L14E:DC245, after 7 days at 37° C.) is “Slight loss of clarity after 7 days”; in series [4] (10% structurant in 60:40 Panalene L14E:DC245, after 7 days at 37° C., listed as REF2), “Slight loss of clarity after 7 days at 37 °C”; in series [4] (10% structurant in 60:40 Panalene L14E:DC245, after 8 days at 37° C.) it was “Fine crystals on surface after 8”; in series [4] (10% structurant in 60:40 Panalene L14E:DC245, after 8 days at 37° C., listed as REF2) it was “Fine crystals on surface after 8 days at 37 °C”; in series [4] (10% structurant in 60:40 Panalene L14E:DC245, after 9 days at 37° C.), “Fine needle crystals throughout gel”; in series [4] (10% structurant in 60:40 Panalene L14E:DC245, after 9 days at 37° C., listed as REF2), “Fine needle crystals throughout gel after 9”. The Observation result in series [4] (10% structurant in 60:40 Panalene L14E:DC245, after 13 days at 37° C., listed as REF2) was “More needle crystals in gel bulk and crystal”; in series [4] (setting [14]) it was “Large amount of crystals throughout”. Further, in series [5], the “Clarity Visual (assessment score)” value is on record as “slight haze 5”. The “Clarity Visual (appearance)” value in series [5] is reported as “transparent/”.

As for `CCCCCCCCC(=O)OCC1OC(OC2C(COC(=O)CCCCCCCC)OC(OC(=O)CCCCCCCC)C(OC(=O)CCCCCCCC)C2OC(=O)CCCCCCCC)C(OC(=O)CCCCCCCC)C(OC(=O)CCCCCCCC)C1OC(=O)CCCCCCCC` (mixture of isomers) [REF 3, reference compound], in series [2], the “Solubility of structurant at 25° C.” value was “Slightly less soluble” and the FDT worked out at 47 °C. The “Clarity % T” value in series [3] worked out at 46%. The Observations entry in series [4] (after 1 day at 37° C.) was “Some crystal growth on gel surface after”. Besides, the Observations result in series [4] (after 9 days at 37° C.) is given as “Crystals throughout gel after 9 days at”. Moreover, in series [4] (after 13 days at 37° C.), the Observations is 37° C.; More crystals throughout gel after. Further, in series [5], the “Clarity Visual (assessment score)” value is reported as “translucent 4” and the “Clarity Visual (appearance)” value is recorded as “transparent/”.
